We go through 18 compounds from PubChem BioAssay (NCI).

The structures appear in SMILES notation.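 A five-concentration, 48-hour dose response in 96-well plates underlies each endpoint, interpolated linearly between surrounding concentrations. GI50 marks 50% less growth. The concentration for full growth arrest is given as TGI.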

Holding throughout (assay): NCI anticancer screen, dose series, 48 h
Assay [1] relates to MDA-MB-435.
Assay [2] deals with NCI/ADR-RES ovarian.
Assay [3] deals with PC-3 prostate.

As to `CN1CCN(Cc2ccc(NC(=O)c3cncc(C#Cc4cnc(N)c5ccc(F)cc45)c3)cc2C(F)(F)F)CC1`, the figures for the GI50 in assay [1], in assay [2] and in assay [3] were 1.24 µM, 3.22 µM and 1.39 µM, respectively. Further, the results for the TGI in assay [1], in assay [2] and in assay [3] were 4.99 µM, 10.4 µM and 6.68 µM, respectively.
For `O=C(Oc1ccc(O)c2c(=O)n3c(cc12)[nH]c1ccccc13)c1ccccc1`, the GI50 in assay [1] was 28.5 µM; in assay [2], 18.7 µM; in assay [3] it was 18.2 µM. Moreover, the TGI in assay [1] was found to be 89.9 µM; in assay [2] it was 55 µM; in assay [3], 56 µM.
Take `COc1cc2nc(-c3ccc(C(F)(F)F)cc3)cc(OCCCN3CCOCC3)c2cc1OC`: the results for the GI50 in assay [1], in assay [2] and in assay [3] were 1.2 µM, 0.64 µM and 2.19 µM, respectively. Besides, the TGI in assay [1] turned out to be 3.57 µM; in assay [2] it was 22.7 µM; in assay [3], 16.5 µM.
Consider `COC(=O)CCC/C=C\C[C@H]1C=CC(=O)/C1=C/C[C@@H](O)CCc1cccc(C(F)(F)F)c1`, for which the GI50 in assay [1] was 2.01 µM; in assay [2] it was 2.81 µM; in assay [3], 2.63 µM. In addition, the figures for the TGI in assay [1], in assay [2] and in assay [3] were 6.15 µM, 10.9 µM and 7.6 µM, respectively.
Regarding `CCCCNc1nc(NC(C)(C)C)nc(NC(C)(C)C)n1`, the GI50 is 31.8 µM in assay [1], 3.31 µM in assay [2] and 4.26 µM in assay [3]. The TGI in assay [1], in assay [2] and in assay [3] was > 100 µM each time.
In the case of `Clc1nc(Oc2ccccc2)nc(-c2cn(-c3ccccc3)c3ccccc23)n1`, the GI50 in assay [1] is 6.49 µM; in assay [2], 17.8 µM; in assay [3], 5.03 µM. Further, the TGI worked out at 23.1 µM in assay [1], 34.9 µM in assay [2] and 19.3 µM in assay [3].
For the compound `CCOC(=O)[C@@H](C)C[C@H](Cc1ccccc1)NC(=O)c1csc([C@@H](C[C@H](C(C)C)N(C)C(=O)[C@@H](NC(=O)[C@H]2C[C@H](O[Si](C)(C)C(C)(C)C)CCN2C)C(C)C)OC(C)=O)n1`, the GI50 in assay [1] was 0.0389 µM; in assay [2] it was 1.29 µM; in assay [3], 0.22 µM. Further, the TGI in assay [1] is 0.165 µM; in assay [2], 5.03 µM; in assay [3], > 8.33 µM.
On to `CCN(CC)CCNc1c(OC)cc(C)c2sc3ccccc3c(=O)c12`, for which the TGI in assay [1] is 8.16 µM; in assay [2] it was 19.2 µM; in assay [3], 20.8 µM.
On to `S=C(Nc1ccc(-c2nc3ccccc3[nH]2)cc1)NC1CCCCC1`, for which the values for the GI50 in assay [1], in assay [2] and in assay [3] were 16.4 µM, 28.6 µM and 36.6 µM, respectively. The TGI in assay [1] came to 43.3 µM; in assay [2], 82.2 µM.
`CN(C)c1ccc(/C=C2\Oc3cc(O)ccc3C2=O)cc1`: the TGI in assay [1], in assay [2] and in assay [3] was > 100 µM throughout.
Consider `CCCCCCC/C=C/[C@H]1O[C@]23C(=O)C[C@@]4(C[C@@H](OC5OC(CO)C(O)C(O)C5O)C[C@@H]4[C@H]2C=C1C)OC3=O` (stereo partly drawn), for which the GI50 in assay [1] was 2.02 µM; in assay [2], 6.99 µM; in assay [3], 3.81 µM. Moreover, the TGI in assay [1] was 7.68 µM; in assay [2] it was > 33.3 µM; in assay [3], 12.9 µM.
As for `C=CCn1c(C)nc2cc(Nc3nc(Nc4ccc5nc(C)n(CC=C)c5c4)c4ccccc4n3)ccc21`, in assay [2], the GI50 was 2.03 µM and the TGI was 5.27 µM.
`COc1ccc2c(c1)sc1nc(-c3ccccc3)c(-c3ccsc3)n12`: in assay [2], the GI50 is 2.53 µM and the TGI was > 100 µM. Further, in assay [3], the GI50 is 4.02 µM and the TGI was > 100 µM.
`O=c1cc(-c2ccccc2)[nH]c2cccc(S)c12`: the values for the TGI in assay [2] and in assay [3] were 0.236 µM and > 100 µM, respectively.
As to `CN(C)CCNc1nc2ccccc2c2c1c1c(n2Cc2ccccc2)-c2ccccc2C1=O`, the GI50 in assay [1] is 16.8 µM; in assay [2], 5.77 µM. Moreover, the TGI in assay [1] worked out at 35.5 µM; in assay [2], 23.1 µM.
For the compound `CC1(C)C=CC[C@]2(C)[C@H]3CC[C@@H]4[C@H]5[C@H](C(=O)/C=C/c6cccnc6)CC[C@]5(CO)CC[C@@]4(C)[C@]3(C)CC[C@@H]12`, in assay [1], the GI50 was 1.32 µM and the TGI was 2.64 µM. For the same compound, in assay [3], the GI50 was 0.505 µM and the TGI worked out at 1.91 µM.
Take `COc1ccc(/C=C/c2cc(OC)c(OC)c(OC)c2)cc1NC(=O)/C=C/c1ccc(F)cc1`: the GI50 is 1.19 µM in assay [2] and 1.98 µM in assay [3]. In addition, the TGI is 6.38 µM in assay [2] and > 100 µM in assay [3].
Turning to `COc1cc(-c2nc3ccc(C)cc3[nH]2)ccc1OCC(=O)N=Nc1c(O)[nH]c2ccccc12`, in assay [1], the GI50 was 1.63 µM and the TGI was 3 µM. Also, in assay [2], the GI50 is > 100 µM and the TGI was > 100 µM.
